Tests used:
Assay type in all cases: in vivo
[1] = test system: barnyardgrass (Echinochloa crus-galli); test: Test A postemergence; settings: Echinochloa crus-galli, post-emergence, 240 h; for pest or weed control at 125 g/ha: 125 g ai/ha, postemergence, visual injury on 0 to 100 scale (0 no effect, 100 complete control), approx. 10 d, read-out: Barnyardgrass plant response rating; for pest or weed control at 31 g/ha: Postemergence, 31 g ai/ha, visual injury after approx. 10 d, 0 to 100 scale, 0 no effect, 100 complete control, read-out: Plant response rating, Barnyardgrass
Outline: (§1)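 Seeded soil received test chemicals as a preemergence directed spray, and seedlings at one to two leaves, 2–10 cm tall, received them postemergence, in a non-phytotoxic, surfactant-containing solvent mixture. Pots were held in a greenhouse for approximately 10 d, then rated for injury from 0, no effect, to 100, complete control.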

[2] = test system: pigweed (Amaranthus retroflexus); test: Test A postemergence; settings: Amaranthus retroflexus, post-emergence, 240 h; for pest or weed control at 125 g/ha: 125 g ai/ha, postemergence, visual injury vs untreated controls after approx. 10 d, 0 = no effect, 100 = complete control, read-out: Pigweed plant response rating (0 to 100 scale); for pest or weed control at 31 g/ha: Postemergence, 31 g ai/ha, visual injury after approx. 10 d, 0 to 100 scale, 0 no effect, 100 complete control, read-out: Plant response rating, Pigweed
Outline: as §1

Kochia (Kochia scoparia) [3] = test: Test A postemergence; settings: Bassia scoparia, post-emergence, 240 h; for pest or weed control at 125 g/ha: 125 g ai/ha, postemergence, visual injury on 0 to 100 scale (0 no effect, 100 complete control), approx. 10 d, read-out: Kochia plant response rating; for pest or weed control at 31 g/ha: Postemergence, 31 g ai/ha, visual injury after approx. 10 d, 0 to 100 scale, 0 no effect, 100 complete control, read-out: Plant response rating, Kochia
Outline: as §1

[4] = test system: wheat (Triticum aestivum); test: Test A postemergence; settings: Triticum aestivum, post-emergence, 240 h; for plant injury at 125 g/ha: 125 g ai/ha, postemergence, visual injury vs untreated controls after approx. 10 d, 0 = no effect, 100 = complete control, read-out: Wheat plant response rating (0 to 100 scale); for plant injury at 31 g/ha: Postemergence, 31 g ai/ha, visual injury after approx. 10 d, 0 to 100 scale, 0 no effect, 100 complete control, read-out: Plant response rating, Wheat
Outline: as §1

[5] = test system: Galium (catchweed bedstraw, Galium aparine); test: Test A postemergence; settings: Galium, post-emergence, 240 h; for pest or weed control at 125 g/ha: 125 g ai/ha, postemergence, visual injury on 0 to 100 scale (0 no effect, 100 complete control), approx. 10 d, read-out: Galium plant response rating; for pest or weed control at 31 g/ha: Postemergence, 31 g ai/ha, visual injury after approx. 10 d, 0 to 100 scale, 0 no effect, 100 complete control, read-out: Plant response rating, Galium
Outline: as §1

[6] = test system: ragweed (common ragweed, Ambrosia elatior); test: Test A postemergence; settings: Ambrosia artemisiifolia, post-emergence, 240 h; for pest or weed control at 125 g/ha: 125 g ai/ha, postemergence, visual injury vs untreated controls after approx. 10 d, 0 = no effect, 100 = complete control, read-out: Ragweed plant response rating (0 to 100 scale); for pest or weed control at 31 g/ha: Postemergence, 31 g ai/ha, visual injury after approx. 10 d, 0 to 100 scale, 0 no effect, 100 complete control, read-out: Plant response rating, Ragweed
Outline: as §1

[7] = test system: giant foxtail (Setaria faberii); test: Test A postemergence; settings: Setaria faberi, post-emergence, 240 h; for pest or weed control at 125 g/ha: 125 g ai/ha, postemergence, visual injury on 0 to 100 scale (0 no effect, 100 complete control), approx. 10 d, read-out: Foxtail, Giant plant response rating; for pest or weed control at 31 g/ha: Postemergence, 31 g ai/ha, visual injury after approx. 10 d, 0 to 100 scale, 0 no effect, 100 complete control, read-out: Plant response rating, Foxtail, Giant
Outline: as §1

[8] = test system: ryegrass, Italian (Italian ryegrass, Lolium multiflorum); test: Test A postemergence; settings: Lolium multiflorum, post-emergence, 240 h; for pest or weed control at 125 g/ha: 125 g ai/ha, postemergence, visual injury vs untreated controls after approx. 10 d, 0 = no effect, 100 = complete control, read-out: Ryegrass, Italian plant response rating (0 to 100 scale); for pest or weed control at 31 g/ha: Postemergence, 31 g ai/ha, visual injury after approx. 10 d, 0 to 100 scale, 0 no effect, 100 complete control, read-out: Plant response rating, Ryegrass, Italian
Outline: as §1

[9] = test system: blackgrass (Alopecurus myosuroides); test: Test A postemergence; settings: Alopecurus myosuroides, post-emergence, 240 h; for pest or weed control at 125 g/ha: 125 g ai/ha, postemergence, visual injury on 0 to 100 scale (0 no effect, 100 complete control), approx. 10 d, read-out: Blackgrass plant response rating; for pest or weed control at 31 g/ha: Postemergence, 31 g ai/ha, visual injury after approx. 10 d, 0 to 100 scale, 0 no effect, 100 complete control, read-out: Plant response rating, Blackgrass
Outline: as §1

corn (Zea mays) = test: Test A postemergence; settings: Zea mays, post-emergence, 240 h; for plant injury at 125 g/ha: 125 g ai/ha, postemergence, visual injury on 0 to 100 scale (0 no effect, 100 complete control), approx. 10 d, read-out: Corn plant response rating; for Corn plant response rating (crop injury, 0 = no effect, 100 = complete kill) at 31 g/ha: Postemergence, 31 g ai/ha, visual injury after approx. 10 d, 0 to 100 scale, 100 complete control
Outline: as §1

[10] = test system: barnyardgrass (Echinochloa crus-galli); test: Test A preemergence; settings: Echinochloa crus-galli, pre-emergence, 240 h, 0 to 100 scale where 0 is no effect and 100 is complete control, read-out: Barnyardgrass plant response rating; for pest or weed control at 31 g/ha: 31 g ai/ha, Preemergence; for pest or weed control at 125 g/ha: 125 g ai/ha, preemergence, approx. 10 d
Outline: as §1

[11] = test system: pigweed (Amaranthus retroflexus); test: Test A preemergence; settings: Amaranthus retroflexus, pre-emergence, 240 h, 0 to 100 scale where 0 is no effect and 100 is complete control, read-out: Pigweed plant response rating; for pest or weed control at 31 g/ha: 31 g ai/ha, Preemergence; for pest or weed control at 125 g/ha: 125 g ai/ha, preemergence, approx. 10 d
Kochia (Kochia scoparia) [12] = test: Test A preemergence; settings: Bassia scoparia, pre-emergence, 240 h, 0 to 100 scale where 0 is no effect and 100 is complete control, read-out: Kochia plant response rating; for pest or weed control at 31 g/ha: 31 g ai/ha, Preemergence; for pest or weed control at 125 g/ha: 125 g ai/ha, preemergence, approx. 10 d
Outline: as §1

[13] = test system: ragweed (common ragweed, Ambrosia elatior); test: Test A preemergence; settings: Ambrosia artemisiifolia, pre-emergence, 240 h, 0 to 100 scale where 0 is no effect and 100 is complete control, read-out: Ragweed plant response rating; for pest or weed control at 31 g/ha: 31 g ai/ha, Preemergence; for pest or weed control at 125 g/ha: 125 g ai/ha, preemergence, approx. 10 d
Outline: as §1

[14] = test system: giant foxtail (Setaria faberii); test: Test A preemergence; settings: Setaria faberi, pre-emergence, 240 h, 0 to 100 scale where 0 is no effect and 100 is complete control, read-out: Foxtail, Giant plant response rating; for pest or weed control at 31 g/ha: 31 g ai/ha, Preemergence; for pest or weed control at 125 g/ha: 125 g ai/ha, preemergence, approx. 10 d
Outline: as §1

[15] = test system: ryegrass, Italian (Italian ryegrass, Lolium multiflorum); test: Test A preemergence; settings: Lolium multiflorum, pre-emergence, 240 h, 0 to 100 scale where 0 is no effect and 100 is complete control, read-out: Ryegrass, Italian plant response rating; for pest or weed control at 31 g/ha: 31 g ai/ha, Preemergence; for pest or weed control at 125 g/ha: 125 g ai/ha, preemergence, approx. 10 d
Outline: as §1

[16] = test system: barnyardgrass (Echinochloa crus-galli); test: Test B flooded paddy test; settings: Echinochloa crus-galli, 250 g ai/ha, Flood; 0 to 100 scale where 0 is no effect and 100 is complete control; read-out: Barnyardgrass plant response rating
Outline: (§2)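 Greenhouse paddy pots with 2-leaf stage plants received compound by direct addition to floodwater 3 cm deep, kept at that level. Scored visually at 13–15 d versus controls (0 no effect; 100 complete control).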

[17] = test system: ducksalad (Heteranthera limosa); test: Test B flooded paddy test; settings: Heteranthera limosa, 250 g ai/ha, Flood; 0 to 100 scale where 0 is no effect and 100 is complete control; read-out: Ducksalad plant response rating
Outline: as §2

[18] = test system: sedge, umbrella (small-flower umbrella sedge, Cyperus difformis); test: Test B flooded paddy test; settings: Cyperus difformis, 250 g ai/ha, Flood; 0 to 100 scale where 0 is no effect and 100 is complete control; read-out: Sedge, Umbrella plant response rating
Outline: as §2

rice (Oryra sativa) = test: Test B flooded paddy test; settings: Oryza sativa, 250 g ai/ha, Flood; 0 to 100 scale where 0 is no effect and 100 is complete control; read-out: Rice plant response rating
Outline: as §2

## CN1C[C@H](c2ccc(F)c(Oc3ccccc3)c2)[C@@H](C(=O)Nc2ccccc2F)C1=O [Compound 1141]
[1]
  pest or weed control at 125 g/ha: 90%
  pest or weed control at 31 g/ha: 60%
[2]
  pest or weed control at 125 g/ha: 50%
  pest or weed control at 31 g/ha: 30%
Kochia (Kochia scoparia) [3]
  pest or weed control at 125 g/ha: 30%
  pest or weed control at 31 g/ha: 0%
[4]
  plant injury at 125 g/ha: 20%
  plant injury at 31 g/ha: 0%
[5]
  pest or weed control at 125 g/ha: 90%
  pest or weed control at 31 g/ha: 60%
[6]
  pest or weed control at 125 g/ha: 30%
  pest or weed control at 31 g/ha: 0%
[7]
  pest or weed control at 125 g/ha: 90%
  pest or weed control at 31 g/ha: 60%
[8]
  pest or weed control at 125 g/ha: 50%
  pest or weed control at 31 g/ha: 20%
[9]
  pest or weed control at 125 g/ha: 30%
  pest or weed control at 31 g/ha: 0%
Corn (Zea mays)
  plant injury at 125 g/ha: 20%
  Corn plant response rating (crop injury, 0 = no effect, 100 = complete kill) at 31 g/ha: 0%
[10]
  pest or weed control at 31 g/ha: 30%
  pest or weed control at 125 g/ha: 80%
[11]
  pest or weed control at 31 g/ha: 30%
  pest or weed control at 125 g/ha: 60%
Kochia (Kochia scoparia) [12]
  pest or weed control at 31 g/ha: 0%
  pest or weed control at 125 g/ha: 0%
[13]
  pest or weed control at 31 g/ha: 0%
  pest or weed control at 125 g/ha: 0%
[14]
  pest or weed control at 31 g/ha: 80%
  pest or weed control at 125 g/ha: 90%
[15]
  pest or weed control at 31 g/ha: 0%
  pest or weed control at 125 g/ha: 40%
[16]
  pest or weed control at 250 g/ha: 50%
[17]
  pest or weed control at 250 g/ha: 90%
[18]
  pest or weed control at 250 g/ha: 0%
Rice (Oryra sativa)
  pest or weed control at 250 g/ha: 0%

## CN1CC(c2cccc(C(F)(F)F)c2)C(C(=O)Nc2ccccc2C(C)(C)O)C1=O (stereo not drawn) [Compound 1146]
[1]
  pest or weed control at 125 g/ha: 40%
  pest or weed control at 31 g/ha: 0%
[2]
  pest or weed control at 125 g/ha: 0%
  pest or weed control at 31 g/ha: 0%
Kochia (Kochia scoparia) [3]
  pest or weed control at 125 g/ha: 0%
  pest or weed control at 31 g/ha: 0%
[4]
  plant injury at 125 g/ha: 0%
  plant injury at 31 g/ha: 0%
[5]
  pest or weed control at 125 g/ha: 0%
  pest or weed control at 31 g/ha: 0%
[6]
  pest or weed control at 125 g/ha: 0%
  pest or weed control at 31 g/ha: 0%
[7]
  pest or weed control at 125 g/ha: 20%
  pest or weed control at 31 g/ha: 0%
[8]
  pest or weed control at 125 g/ha: 0%
  pest or weed control at 31 g/ha: 0%
[9]
  pest or weed control at 125 g/ha: 0%
  pest or weed control at 31 g/ha: 0%
Corn (Zea mays)
  plant injury at 125 g/ha: 30%
  Corn plant response rating (crop injury, 0 = no effect, 100 = complete kill) at 31 g/ha: 0%
[10]
  pest or weed control at 31 g/ha: 50%
  pest or weed control at 125 g/ha: 70%
[11]
  pest or weed control at 31 g/ha: 0%
  pest or weed control at 125 g/ha: 0%
Kochia (Kochia scoparia) [12]
  pest or weed control at 31 g/ha: 0%
  pest or weed control at 125 g/ha: 0%
[13]
  pest or weed control at 31 g/ha: 0%
  pest or weed control at 125 g/ha: 0%
[14]
  pest or weed control at 31 g/ha: 20%
  pest or weed control at 125 g/ha: 80%
[15]
  pest or weed control at 31 g/ha: 0%
  pest or weed control at 125 g/ha: 30%
[16]
  pest or weed control at 250 g/ha: 45%
[17]
  pest or weed control at 250 g/ha: 0%
[18]
  pest or weed control at 250 g/ha: 50%
Rice (Oryra sativa)
  pest or weed control at 250 g/ha: 0%
